Data published in ChEMBL document CHEMBL1131952, “Synthesis of tetrasubstituted bicyclo[3.2.1]octenes as potential inhibitors of influenza virus sialidase” (Bioorg Med Chem Lett, 1999).

Tests used:
Influenza A virus = assay: Inhibitory activity against sialidase of influenza A; type: functional, organism-based
Influenza B virus = assay: Inhibitory activity against sialidase of influenza B; type: functional, organism-based

Structure (SMILES)	IC50 (Influenza A virus) [µM]	IC50 (Influenza B virus) [µM]
CCC(CC)O[C@@H]1C=C(C(=O)O)[C@@H]2CC[C@@]1(NC(C)=O)[C@H]2O	80	340
CCC(CC)O[C@@H]1C=C(C(=O)O)[C@@H]2CC[C@@]1(C(=O)O)[C@H]2O	> 670	> 670
CCC(CC)O[C@@H]1C=C(C(=O)O)[C@@H]2CC[C@@]1(C(=O)OC)[C@H]2O	99	83
CC(=O)N[C@H]1[C@H]([C@H](O)[C@H](O)CO)OC(C(=O)O)=C[C@@H]1O [NEU5AC2EN]	2.8	3
